Where two headings read alike, the source gives them in different places. Marks after values point to notes of the source that are not given here.
Legend:
HK2-VELesc, L31V (NS5A) = format: cell-based, HCV genotype 6a; conditions: HK2-VELesc vs original HK2
HK6a-VELesc, L31V (NS5A) = format: cell-based, HCV genotype 6a; conditions: HK6a-VELesc vs original HK6a
[1] = test system: HK6a-SOFesc, S282T (NS5B); format: cell-based, HCV genotype 6a; conditions: HK6a-SOFesc vs original HK6a
[2] = test system: HK6a-SOFesc/VELesc, S282T (NS5B)/L28S (NS5A); format: cell-based, HCV genotype 6a; conditions: HK6a-SOFesc/VELesc (L28S) vs original HK6a
[3] = test system: HK6a-VELesc/PIB(3 nM)esc, V21A + L28S + L31V (NS5A); format: cell-based, HCV genotype 6a; conditions: HK6a-VELesc/PIB(3 nM)esc vs original HK6a
[4] = test system: HK6a-VELesc/PIB(10 nM)esc, L28S + L31V (NS5A); format: cell-based, HCV genotype 6a; conditions: HK6a-VELesc/PIB(10 nM)esc (L28S+L31V) vs original HK6a
[5] = test system: velpatasvir escape viruses of HK2 and HK6a (NS5A-L31V); format: cell-based, HCV genotype 6a; conditions: drug-free passage stocks of HK2 and HK6a escape viruses, FIG. 3A
[6] = test system: HK6a full-length virus (original); conditions: for outcome of long-term treatment / outcome of long-term treatment (resistance selection): HK6a; for outcome of long-term treatment: velpatasvir (10 nM) and sofosbuvir (570 nM), individually or combined; for day from which no HCV-antigen positive cells were detectable: HK6a original virus
Experimental: Long-term treatment was performed for HK6a viruses as described in Materials and Methods. (A): Percentage HCV-antigen positive cells determined by evaluation of Core/NS5A-antigen positive versus total number of cells during treatment (y-axis) at the indicated time points (x-axis) (top panel). […] Changes in HCV RNA levels (y-axis) related to day 0 (treatment initiated), were determined from supernatants at corresponding time-points (x-axis) (bottom panel)^18. (B-D): Combination treatment of sofosbuvir (570 nM) and different concentrations of velpatasvir [0.1(10x−EC50), 1(100x−EC50), 10(1000x−EC50) nM], were performed with HK6a escape viruses compared with original viruses.
For long-term DAA treatments, Huh7.5 cells were infected with second-passage supernatants of HK2(H77_3′XSLI)-17m or HK6a(FL)-12m viruses (Table 1, FIG. 1F). […] Treatments were carried out in T25 flasks, and drugs were diluted in medium at the indicated concentration. Drugs were added every 2-3 days when cells were split. HCV RNA levels were determined using supernatants collected at indicated time points as described^18. The percentage of HCV positive cells, at indicated time-points, was determined by immunostaining, and supernatants were collected and stored at −80° C. for further analysis. At day 25 after initiation of treatment, cultures with no detectable HCV positive cells were divided into 2 flasks, and one of the replicates was cultured without drug. These untreated cultures were followed for 2 weeks and if no HCV positive cells were detected by immunostaining, the infection was considered cleared.

TN (1a) = assay: Concentration-response treatment of infected Huh7.5 cells, TN (1a) control virus; conditions: Hepatitis C virus, Huh7.5, read-out: EC50, nM (95% CI), TN (1a)
Experimental: (§1) Huh7.5 cells were seeded in 96-well plates and then infected with the indicated viruses. TN (1a) was used as a comparative control. 24 h after infection, cells were treated with the indicated NS5A inhibitor for 48 h. Values are means of triplicates±SEM. Concentration-response curves were calculated as previously described^26.
(§2) All concentration-response treatment experiments were performed using established methods^16,18,26. For half-maximal effective concentration (EC50) value calculations, a sigmoidal concentration-response curve was fitted using GraphPad Prism 6^18,26.

HK2 (6a) = conditions: for EC50: Hepatitis C virus, Huh7.5, read-out: EC50, nM (95% CI), HK2 (6a); for Fold to TN, HK2 (6a): fold change in EC50 compared to TN
Experimental: as §1, §2

HK6a (6a) = assay: Concentration-response treatment of infected Huh7.5 cells, HK6a full-length virus; conditions: for EC50: Hepatitis C virus, Huh7.5, read-out: EC50, nM (95% CI), HK6a (6a); for Fold to TN, HK6a (6a): fold change in EC50 compared to TN
Experimental: as §1, §2

[7] = test system: HK6a velpatasvir escape virus harboring NS5A-L31V; format: cell-based; conditions: pibrentasvir 0.3, 3 and 10 nM
HK2-SOFesc, S282T (NS5B) = format: cell-based, HCV genotype 6a; conditions: HK2-SOFesc vs original HK2
HK2cc = assay: microbe, parasite or virus in culture; format: cell-based; conditions: Hepatitis C virus; HK2cc in separate experiment of FIG. 4
[8] = test system: escape viruses with RAS NS5B-S282T (HK2 and HK6a); format: cell-based, HCV genotype 6a; conditions: escape viruses generated in drug-free cultures, FIGS. 4A, B
[9] = test system: HK2cc recombinant viruses with NS5B-S282T
[10] = Huh7.5 cells, treated 24 h after infection for 48 h, ni = not inhibited at highest concentration used

Question: What does the source list for `COC[C@H]1C[C@@H](c2nc(-c3ccc4c(c3)COc3cc5c(ccc6nc([C@@H]7CC[C@H](C)N7C(=O)[C@@H](NC(=O)OC)C(C)C)[nH]c65)cc3-4)c[nH]2)N(C(=O)[C@H](NC(=O)OC)c2ccccc2)C1` [Velpatasvir]?
Answer: Fold-change EC50 to original virus (HK2-VELesc, L31V (NS5A)): 3066 fold; Fold-change EC50 to original virus (HK6a-VELesc, L31V (NS5A)): 2384 fold; Fold-change EC50 to original virus [1]: 1 fold; Fold-change EC50 to original virus [2]: ~58.000 fold; Fold-change EC50 to original virus ([2]; listed as VEL): 58.105 fold; Fold-change EC50 to original virus [3]: ≥992.928^d fold; Fold-change EC50 to original virus [4]: > 899.000 fold; Fold-change EC50 to original virus ([4]; listed as VEL): ≥899.214^d fold; fold increase in EC50 in comparison with the pre-treatment virus [5]: 2- to 3 thousand; outcome of long-term treatment [6]: failed to fully suppress the infection; EC50 (TN (1a)): 0.005 nM; EC50 (HK2 (6a)): 0.007 nM; Fold to TN, HK2 (6a) (HK2 (6a)): 1.4 fold; EC50 (HK6a (6a)): 0.011 nM; Fold to TN, HK6a (6a) (HK6a (6a)): 2.2 fold

Question: `COC(=O)N[C@H](C(=O)N1CCC[C@H]1c1nc(-c2ccc3c(c2)O[C@@H](c2ccccc2)n2c-3cc3cc(-c4c[nH]c([C@@H]5CCCN5C(=O)[C@@H](NC(=O)OC)C(C)C)n4)ccc32)c[nH]1)C(C)C` [Elbasvir] was tested. Which EC50 (TN (1a)) did it give?
Answer: 0.006 nM

Question: And the EC50 (HK2 (6a))?
Answer: 0.017 nM

Question: What about the “Fold to TN, HK2 (6a)” value (HK2 (6a)) of the same compound?
Answer: 2.8 fold

Question: And the EC50 (HK6a (6a))?
Answer: 0.009 nM

Question: And the “Fold to TN, HK6a (6a)” value (HK6a (6a))?
Answer: 1.5 fold

Question: For `CC(C)(C)C#Cc1cc(N(C(=O)[C@H]2CC[C@H](C)CC2)[C@H]2CC[C@H](O)CC2)c(C(=O)O)s1` [Lomibuvir], which EC50 (TN (1a)) is on record?
Answer: 27.6 nM

Question: And the EC50 (HK2 (6a))?
Answer: > 4000 nM

Question: What about the “EC50, nM (95% CI), HK2 (6a)” value (HK2 (6a); [10]) of the same compound?
Answer: ni

Question: What about the EC50 (HK6a (6a)) of the same compound?
Answer: > 4000 nM

Question: And the “EC50, nM (95% CI), HK6a (6a)” value (HK6a (6a); [10])?
Answer: ni

Question: `COC(=O)N[C@H](C(=O)N1CCC[C@H]1c1nc2cc([C@H]3CC[C@H](c4cc5nc([C@@H]6CCCN6C(=O)[C@@H](NC(=O)OC)[C@@H](C)OC)[nH]c5cc4F)N3c3cc(F)c(N4CCC(c5ccc(F)cc5)CC4)c(F)c3)c(F)cc2[nH]1)[C@@H](C)OC` [Pibrentasvir] was tested. Which “Fold-change EC50 to original virus” value (HK2-VELesc, L31V (NS5A)) did it give?
Answer: 1 fold

Question: And the “Fold-change EC50 to original virus” value (HK6a-VELesc, L31V (NS5A))?
Answer: 1 fold

Question: What about the “Fold-change EC50 to original virus” value [1] of the same compound?
Answer: 1 fold

Question: And the “Fold-change EC50 to original virus” value [2]?
Answer: 250 fold

Question: And the “Fold-change EC50 to original virus” value [3]?
Answer: 85.500 fold

Question: What about the “Fold-change EC50 to original virus” value [4] of the same compound?
Answer: 79.000 fold

Question: And the “outcome of long-term treatment” value [7]?
Answer: escaped the treatment at all concentrations

Question: And the “day from which no HCV-antigen positive cells were detectable” value ([6]; pibrentasvir 0.3 nM)?
Answer: 7 days

Question: What about the “day from which no HCV-antigen positive cells were detectable” value ([6]; pibrentasvir 3 nM) of the same compound?
Answer: 5 days

Question: And the “day from which no HCV-antigen positive cells were detectable” value ([6]; pibrentasvir 10 nM)?
Answer: 5 days

Question: And the “outcome of long-term treatment (resistance selection)” value (shortened to “outcome … (resistance selection)”) ([6]; PIB 0.3 nM)?
Answer: Infection cleared

Question: And the “outcome … (resistance selection)” value ([6]; PIB 3 nM)?
Answer: Infection cleared

Question: What about the “outcome … (resistance selection)” value ([6]; PIB 10 nM) of the same compound?
Answer: Infection cleared

Question: And the EC50 (TN (1a))?
Answer: 0.004 nM

Question: What about the EC50 (HK2 (6a)) of the same compound?
Answer: 0.002 nM

Question: What about the “Fold to TN, HK2 (6a)” value (HK2 (6a)) of the same compound?
Answer: 0.6 fold

Question: And the EC50 (HK6a (6a))?
Answer: 0.004 nM

Question: What about the “Fold to TN, HK6a (6a)” value (HK6a (6a)) of the same compound?
Answer: 1.0 fold

Question: What does the source list for `COc1ccc2c(c1)[C@@H]1C[C@]1(C(=O)N1[C@@H]3CC[C@H]1CN(C)C3)Cn1c-2c(C2CCCCC2)c2ccc(C(=O)NS(=O)(=O)N(C)C)cc21` [Beclabuvir]?
Answer: EC50 (TN (1a)): 5.3 nM; EC50 (HK2 (6a)): 28.1 nM; Fold to TN, HK2 (6a) (HK2 (6a)): 5.3 fold; EC50 (HK6a (6a)): 34.1 nM; Fold to TN, HK6a (6a) (HK6a (6a)): 6.4 fold

Question: With `COC(=O)N[C@H](C(=O)N1CCC[C@H]1C(=O)Nc1ccc([C@@H]2CC[C@@H](c3ccc(NC(=O)[C@@H]4CCCN4C(=O)[C@@H](NC(=O)OC)C(C)C)cc3)N2c2ccc(C(C)(C)C)cc2)cc1)C(C)C` [Ombitasvir] as the compound, how does the EC50 (TN (1a)) read?
Answer: 0.002 nM

Question: What about the EC50 (HK2 (6a)) of the same compound?
Answer: 0.6 nM

Question: What about the “Fold to TN, HK2 (6a)” value (HK2 (6a)) of the same compound?
Answer: 300.0 fold

Question: What about the EC50 (HK6a (6a)) of the same compound?
Answer: 2.2 nM

Question: What about the “Fold to TN, HK6a (6a)” value (HK6a (6a)) of the same compound?
Answer: 1100.0 fold

Question: How did the EC50 (TN (1a)) turn out when `CC(C)OC(=O)[C@@H](C)N[P@@](=O)(OC[C@H]1O[C@@H](n2ccc(=O)[nH]c2=O)[C@](C)(Cl)[C@@H]1O)Oc1ccccc1` [MK-3682] was run?
Answer: 392 nM

Question: And the EC50 (HK2 (6a))?
Answer: 370 nM

Question: And the “Fold to TN, HK2 (6a)” value (HK2 (6a))?
Answer: 0.9 fold

Question: And the EC50 (HK6a (6a))?
Answer: 522 nM

Question: And the “Fold to TN, HK6a (6a)” value (HK6a (6a))?
Answer: 1.3 fold

Question: For `CNC(=O)c1c(-c2ccc(F)cc2)oc2cc(N(CCO)S(C)(=O)=O)c(C3CC3)cc12` [HCV-796], which EC50 (TN (1a)) is on record?
Answer: 26 nM

Question: What about the EC50 (HK2 (6a)) of the same compound?
Answer: 24 nM

Question: What about the “Fold to TN, HK2 (6a)” value (HK2 (6a)) of the same compound?
Answer: 0.9 fold

Question: And the EC50 (HK6a (6a))?
Answer: 131 nM

Question: What about the “Fold to TN, HK6a (6a)” value (HK6a (6a)) of the same compound?
Answer: 5.0 fold

Question: With `CC(C)OC(=O)[C@H](C)N[P@](=O)(OC[C@H]1O[C@@H](n2ccc(=O)[nH]c2=O)[C@](C)(F)[C@@H]1O)Oc1ccccc1` [Sofosbuvir] as the compound, how does the “Fold-change EC50 to original virus” value (HK2-SOFesc, S282T (NS5B)) read?
Answer: 7.9 fold

Question: And the “Fold-change EC50 to original virus” value [1]?
Answer: ≥8^d fold

Question: What about the EC50 (HK2cc) of the same compound?
Answer: 653 nM

Question: What about the “fold increase in EC50” value [8] of the same compound?
Answer: ≥ 8 fold

Question: And the “fold lower sensitivity compared with HK2cc” value [9]?
Answer: 3 to 5 fold

Question: And the “outcome of long-term treatment” value [6]?
Answer: failed to fully suppress the infection

Question: And the EC50 (TN (1a))?
Answer: 481 nM

Question: And the EC50 (HK2 (6a))?
Answer: 393 nM

Question: And the “Fold to TN, HK2 (6a)” value (HK2 (6a))?
Answer: 0.8 fold

Question: And the EC50 (HK6a (6a))?
Answer: 513 nM

Question: What about the “Fold to TN, HK6a (6a)” value (HK6a (6a)) of the same compound?
Answer: 1.1 fold

Question: Which results are given for `COc1c(-c2ccc3cc(NS(C)(=O)=O)ccc3c2)cc(-n2ccc(=O)[nH]c2=O)cc1C(C)(C)C` [Dasabuvir]?
Answer: EC50 (TN (1a)): 35.5 nM; EC50 (HK2 (6a)): 267 nM; Fold to TN, HK2 (6a) (HK2 (6a)): 7.5 fold; EC50 (HK6a (6a)): 434 nM; Fold to TN, HK6a (6a) (HK6a (6a)): 12.2 fold

Question: `COC(=O)N[C@H](C(=O)N1CC2(CC2)C[C@H]1c1nc(-c2ccc3c(c2)C(F)(F)c2cc(-c4ccc5[nH]c([C@@H]6[C@H]7CC[C@H](C7)N6C(=O)[C@@H](NC(=O)OC)C(C)C)nc5c4)ccc2-3)c[nH]1)C(C)C` [Ledipasvir] was tested. Which EC50 (TN (1a)) did it give?
Answer: 0.005 nM

Question: And the EC50 (HK2 (6a))?
Answer: 0.228 nM

Question: And the “Fold to TN, HK2 (6a)” value (HK2 (6a))?
Answer: 45.6 fold

Question: And the EC50 (HK6a (6a))?
Answer: 0.346 nM

Question: What about the “Fold to TN, HK6a (6a)” value (HK6a (6a)) of the same compound?
Answer: 69.2 fold

Question: Which EC50 (TN (1a)) does the source give for `COC(=O)N[C@H](C(=O)N1CCC[C@H]1c1nc(-c2ccc(-c3ccc(-c4c[nH]c([C@@H]5CCCN5C(=O)[C@@H](NC(=O)OC)C(C)C)n4)cc3)cc2)c[nH]1)C(C)C` [Daclatasvir] here?
Answer: 0.019 nM

Question: What about the EC50 (HK6a (6a)) of the same compound?
Answer: 0.014 nM

Reference: patent US12104176B2, “Efficient cell culture system for hepatitis C virus genotype 6A” (priority 2018, dated 2024)
